From the NIST ThermoML archive (doi:10.1016/j.jct.2012.05.008)

Assay: xn = mol fraction of the nth substance listed
Conditions: Liquid, Vibrating tube method, x2 = 0.3333

NC(N)=O [urea] + C[N+](C)(C)CCO.[Cl-]
mass density [kg/m3]
Conditions | 298.15 K | 303.15 K | 308.15 K | 313.15 K | 318.15 K | 323.15 K
100 kPa | 1197.9 | 1195.1 | 1192.2 | 1189.3 | 1186.4 | 1183.5
5000 kPa | 1199.3 | 1196.4 | 1193.6 | 1190.7 | 1187.8 | 1184.9
10000 kPa | 1200.6 | 1197.9 | 1194.9 | 1192 | 1189.2 | 1186.3
15000 kPa | 1201.9 | 1199.1 | 1196.3 | 1193.4 | 1190.5 | 1187.6
20000 kPa | 1203.3 | 1200.4 | 1197.6 | 1194.7 | 1191.9 | 1189
25000 kPa | 1204.6 | 1201.8 | 1198.9 | 1196.1 | 1193.2 | 1190.4
30000 kPa | 1205.9 | 1203.1 | 1200.3 | 1197.4 | 1194.6 | 1191.6
35000 kPa | 1207.1 | 1204.4 | 1201.5 | 1198.7 | 1195.8 | 1193
40000 kPa | 1208.3 | 1205.6 | 1202.8 | 1200 | 1197.1 | 1194.2
45000 kPa | 1209.5 | 1206.8 | 1204 | 1201.2 | 1198.3 | 1195.5
50000 kPa | 1210.7 | 1208 | 1205.1 | 1202.3 | 1199.5 | 1196.7
